How the values were obtained:
Test in all cases: direct labeling of recombinantly expressed proteins by gel-based ABPP (WT vs lysine mutant)
Format in all cases: binding
[1] = target: T1, ADK (Homo sapiens, UniProt P55263); conditions: ADK K88, KR mutant; 10 μM probe, 1 h
T1 construct: expressed in transfected cells; host or cells: HEK 293T

[2] = target: T2, PFKL (Homo sapiens, UniProt P17858); conditions: PFKL K676, KA mutant; 10 μM probe, 1 h
T2 construct: expressed in transfected cells; host or cells: HEK 293T
T2 sequence (P17858 1-780): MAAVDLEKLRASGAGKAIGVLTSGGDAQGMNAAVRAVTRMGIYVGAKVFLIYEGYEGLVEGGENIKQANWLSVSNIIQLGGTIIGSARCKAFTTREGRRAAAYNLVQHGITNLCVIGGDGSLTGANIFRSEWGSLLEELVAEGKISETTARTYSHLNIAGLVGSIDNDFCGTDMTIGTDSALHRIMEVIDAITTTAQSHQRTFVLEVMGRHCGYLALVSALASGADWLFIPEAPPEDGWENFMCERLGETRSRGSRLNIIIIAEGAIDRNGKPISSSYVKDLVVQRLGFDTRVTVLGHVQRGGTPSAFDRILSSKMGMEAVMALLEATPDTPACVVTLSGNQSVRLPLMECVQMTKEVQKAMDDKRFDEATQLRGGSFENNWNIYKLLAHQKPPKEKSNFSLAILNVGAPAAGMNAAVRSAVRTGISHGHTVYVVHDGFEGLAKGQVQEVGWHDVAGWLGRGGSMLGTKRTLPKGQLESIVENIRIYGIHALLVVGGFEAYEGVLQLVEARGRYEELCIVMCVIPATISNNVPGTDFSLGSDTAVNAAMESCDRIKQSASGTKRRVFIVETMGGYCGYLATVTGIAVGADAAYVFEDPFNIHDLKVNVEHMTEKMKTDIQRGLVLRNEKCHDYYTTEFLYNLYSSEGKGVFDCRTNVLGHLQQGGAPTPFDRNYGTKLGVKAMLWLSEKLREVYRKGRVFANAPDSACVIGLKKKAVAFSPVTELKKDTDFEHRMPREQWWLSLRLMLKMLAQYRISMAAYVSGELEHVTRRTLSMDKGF

[3] = target: T3, G6PD (Homo sapiens, UniProt P11413); conditions: G6PD K171, KR mutant; 10 μM probe, 1 h
T3 construct: expressed in transfected cells; host or cells: HEK 293T
T3 sequence (P11413 whole entry): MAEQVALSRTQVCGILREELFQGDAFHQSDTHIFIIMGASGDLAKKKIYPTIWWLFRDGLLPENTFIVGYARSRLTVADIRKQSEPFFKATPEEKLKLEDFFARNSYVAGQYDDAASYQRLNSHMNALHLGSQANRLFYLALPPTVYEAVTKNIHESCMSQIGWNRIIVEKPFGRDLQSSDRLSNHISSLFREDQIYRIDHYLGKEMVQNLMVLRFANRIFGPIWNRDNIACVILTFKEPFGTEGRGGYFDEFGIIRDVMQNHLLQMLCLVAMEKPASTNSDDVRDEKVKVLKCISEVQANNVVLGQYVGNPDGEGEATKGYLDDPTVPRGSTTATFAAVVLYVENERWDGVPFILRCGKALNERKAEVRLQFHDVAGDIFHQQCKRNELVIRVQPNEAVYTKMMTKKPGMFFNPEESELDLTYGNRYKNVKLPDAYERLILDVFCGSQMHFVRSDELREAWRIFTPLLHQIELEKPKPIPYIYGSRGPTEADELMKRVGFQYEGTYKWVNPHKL

[4] = target: T4, CARM1 (Mus musculus, UniProt Q9WVG6); conditions: CARM1 K241, KR mutant; 10 μM probe, 1 h
T4 construct: FLAG; expressed in transfected cells; host or cells: HEK 293T
T4 sequence (Q9WVG6 1-608): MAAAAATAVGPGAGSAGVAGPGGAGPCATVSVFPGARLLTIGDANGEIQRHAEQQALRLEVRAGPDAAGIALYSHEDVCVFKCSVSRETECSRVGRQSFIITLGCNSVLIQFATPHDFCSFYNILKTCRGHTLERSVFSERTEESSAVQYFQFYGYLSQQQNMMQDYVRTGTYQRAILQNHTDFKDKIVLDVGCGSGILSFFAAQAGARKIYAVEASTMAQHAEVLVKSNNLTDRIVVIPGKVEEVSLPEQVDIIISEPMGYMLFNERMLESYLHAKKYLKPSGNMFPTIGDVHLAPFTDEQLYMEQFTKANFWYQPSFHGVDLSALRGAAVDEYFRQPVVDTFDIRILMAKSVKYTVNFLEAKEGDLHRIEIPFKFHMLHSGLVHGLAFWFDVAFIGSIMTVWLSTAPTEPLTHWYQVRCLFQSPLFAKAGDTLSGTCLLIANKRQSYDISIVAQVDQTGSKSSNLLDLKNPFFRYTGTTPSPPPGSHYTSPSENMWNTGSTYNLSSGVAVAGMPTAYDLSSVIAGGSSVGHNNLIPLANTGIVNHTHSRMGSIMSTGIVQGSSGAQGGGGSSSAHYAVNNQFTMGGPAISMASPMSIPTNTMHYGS

T1 sequence (P55263 whole entry): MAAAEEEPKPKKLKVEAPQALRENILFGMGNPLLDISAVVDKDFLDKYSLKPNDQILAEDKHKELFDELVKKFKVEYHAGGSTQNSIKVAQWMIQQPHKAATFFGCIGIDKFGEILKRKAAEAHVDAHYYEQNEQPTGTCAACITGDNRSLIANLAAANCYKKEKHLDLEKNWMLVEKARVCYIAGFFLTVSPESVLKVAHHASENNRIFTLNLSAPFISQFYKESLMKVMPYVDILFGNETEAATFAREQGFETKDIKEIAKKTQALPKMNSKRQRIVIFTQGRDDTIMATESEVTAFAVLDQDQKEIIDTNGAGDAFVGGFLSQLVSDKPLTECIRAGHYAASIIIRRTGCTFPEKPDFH

## C#CCCC(=O)Oc1c(F)c(F)c(S(=O)(=O)[O-])c(F)c1F.[Na+] [probe 1, reference compound]
[1]
  labeling of WT vs mutant protein by probe: PD (the WT labeled more than the mutant (>2x difference quantified))
[2]
  labeling of WT vs mutant protein by probe: PD (the WT labeled more than the mutant (>2x difference quantified))
[3]
  labeling of WT vs mutant protein by probe: ND (the WT did not label more than the mutant (<2x difference quantified))
[4]
  labeling of WT vs mutant protein by probe: HD (the WT labeled more than the mutant (>4x difference quantified))

## C#CCCC(=O)Oc1c(F)c(F)c(F)c(F)c1F [probe 6, Pentafluorophenyl 4-pentynoate]
[3]
  labeling of WT vs mutant protein by probe: ND (the WT did not label more than the mutant (<2x difference quantified))
[4]
  labeling of WT vs mutant protein by probe: ND (the WT did not label more than the mutant (<2x difference quantified))

## C#Cc1ccc(C(=O)Oc2ccccc2[N+](=O)[O-])cc1 [probe 10, 2-Nitrophenyl 4-ethynylbenzoate]
[1]
  labeling of WT vs mutant protein by probe: HD (the WT labeled more than the mutant (>4x difference quantified))
[2]
  labeling of WT vs mutant protein by probe: PD (the WT labeled more than the mutant (>2x difference quantified))

## C#Cc1ccc(C(=O)Oc2c(F)c(F)cc(F)c2F)cc1 [probe 12, 2,3,5,6-Tetrafluorophenyl 4-ethynylbenzoate]
[1]
  labeling of WT vs mutant protein by probe: HD (the WT labeled more than the mutant (>4x difference quantified))
[2]
  labeling of WT vs mutant protein by probe: PD (the WT labeled more than the mutant (>2x difference quantified))
[3]
  labeling of WT vs mutant protein by probe: ND (the WT did not label more than the mutant (<2x difference quantified))
[4]
  labeling of WT vs mutant protein by probe: ND (the WT did not label more than the mutant (<2x difference quantified))

## C#Cc1ccc(C(=O)Oc2c(F)c(F)c(F)c(F)c2F)cc1 [probe 13, Pentafluorophenyl 4-ethynylbenzoate]
[1]
  labeling of WT vs mutant protein by probe: HD (the WT labeled more than the mutant (>4x difference quantified))
[2]
  labeling of WT vs mutant protein by probe: PD (the WT labeled more than the mutant (>2x difference quantified))
[3]
  labeling of WT vs mutant protein by probe: ND (the WT did not label more than the mutant (<2x difference quantified))
[4]
  labeling of WT vs mutant protein by probe: ND (the WT did not label more than the mutant (<2x difference quantified))

## Cc1cc(C)n2c1C=C1C=CC(CCC(=O)Oc3c(F)c(F)c(S(=O)(=O)[O-])c(F)c3F)=[N+]1[B-]2(F)F.[Na+] [probe 18, reference compound]
[1]
  labeling of WT vs mutant protein by probe: PD (the WT labeled more than the mutant (>2x difference quantified))
[2]
  labeling of WT vs mutant protein by probe: PD (the WT labeled more than the mutant (>2x difference quantified))
[3]
  labeling of WT vs mutant protein by probe: NL (labelling of the WT protein was not detected by gel (intensity for WT less than 2x background))
[4]
  labeling of WT vs mutant protein by probe: PD (the WT labeled more than the mutant (>2x difference quantified))
